Laboratory results from patent US20160150782A1, “USE OF SELECTED PYRIDONE CARBOXAMIDES OR SALTS THEREOF AS ACTIVE SUBSTANCES AGAINST ABIOTIC PLANT STRESS” (BAYER CROPSCIENCE AKTIENGESELLSCHAFT, priority 2013, published 2016).

Key:
Format in all cases: in vivo
Zea mays (corn) [1] = assay: Cold stress test on sprayed greenhouse plants, visual damage scoring (Table 1); conditions: efficacy = reduction in damage intensity, spray WP, 600 l/ha water
Experimental: Seeds of monocotyledonous and dicotyledonous crop plants are sown in sandy loam in plastic or wood-fiber pots, covered with soil or sand and cultivated in a greenhouse under good growth conditions. The test plants are treated at the early leaf stage (BBCH10-BBCH13). To assure uniform water supply before commencement of stress, the potted plants are supplied with water by dam irrigation prior to substance application.
The inventive compounds, formulated in the form of wettable powders (WP), are sprayed onto the green parts of the plants as an aqueous suspension at an equivalent water application rate of 600 I/ha with addition of 0.2% wetting agent (e.g. agrotin). Substance application is followed immediately by stress treatment of the plants. For this purpose, the wood-fiber pots are transferred in plastic inserts in order to prevent them from subsequently drying out too quickly.
The duration of the respective stress phases is guided mainly by the condition of the stressed control plants. It is ended (by re-irrigating and transfer to a greenhouse with good growth conditions) as soon as irreversible damage is observed on the stressed control plants.
The end of the stress phase is followed by an approx. 4-14-day recovery phase, during which the plants are once again kept under good growth conditions in a greenhouse. The duration of the recovery phase is guided mainly by when the trial plants have attained a state which enables visual scoring of potential effects, and is therefore variable.
Once this juncture has been reached, the intensities of damage are scored visually in comparison to untreated, unstressed controls of the same age. The damage intensity is at first assessed in percent. These values are then used to calculate the efficacy of the test compounds by the following formula:
[formula] • E: Efficacy=reduction in damage intensity as a result of treatment with test substance • DIs: Damage intensity of the stressed control plants • DIt: Damage intensity of the plants treated with test compound […]

Triticum aestivum = assay: Drought stress test on sprayed greenhouse plants, visual damage scoring (Table 4); conditions: efficacy = reduction in damage intensity, dosage 250 g/ha, spray WP, 600 l/ha water
Experimental: (§1) Seeds of monocotyledonous and dicotyledonous crop plants are sown in sandy loam in plastic or wood-fiber pots, covered with soil or sand and cultivated in a greenhouse under good growth conditions. The test plants are treated at the early leaf stage (BBCH10-BBCH13). To assure uniform water supply before commencement of stress, the potted plants are supplied with water by dam irrigation prior to substance application. The inventive compounds, formulated in the form of wettable powders (WP), are sprayed onto the green parts of the plants as an aqueous suspension at an equivalent water application rate of 600 I/ha with addition of 0.2% wetting agent (e.g. agrotin). Substance application is followed immediately by stress treatment of the plants. For this purpose, the wood-fiber pots are transferred in plastic inserts in order to prevent them from subsequently drying out too quickly. Drought stress is induced by gradual drying out under the following conditions: “Day”: 14 hours with illumination at 26-30° C. “Night”: 10 hours without illumination at 18-20° C. The duration of the respective stress phases is guided mainly by the condition of the stressed control plants. […] The end of the stress phase is followed by an approx. 4-14-day recovery phase, during which the plants are once again kept under good growth conditions in a greenhouse. The duration of the recovery phase is guided mainly by when the trial plants have attained a state which enables visual scoring of potential effects, and is therefore variable. […] The damage intensity is at first assessed in percent.

Zea mays (corn) [2] = assay: Drought stress test on sprayed greenhouse plants, visual damage scoring (Table 2); set-up: key: reduction in damage intensity, damage assessed in %; conditions: efficacy = reduction in damage intensity, spray WP, 600 l/ha water
Experimental: as §1

**Q.** What does the source list for `Cc1cc(C(=O)NCCO)c(=O)[nH]c1C(F)(F)C(F)(F)F` [compound 265]?
**A.** E:E (ZEAMX) (Zea mays (corn) [1]; dosage 10 g/ha): >5; E (TRZAS) (Triticum aestivum): >5

**Q.** What does the source list for `CC(C)C(C)NC(=O)c1cc(Br)c(C(F)C(F)(F)F)[nH]c1=O` (stereo not drawn) [compound 2128]?
**A.** E:E (ZEAMX) (Zea mays (corn) [1]; dosage 250 g/ha): >5; E (ZEAMX) (Zea mays (corn) [2]; dosage 25 g/ha): >5

**Q.** With `CC(C)(C)CNC(=O)c1cc(I)c(C(F)(F)F)[nH]c1=O` [compound 2223] as the molecule, how does the “E:E (ZEAMX)” value (Zea mays (corn) [1]; dosage 25 g/ha) read?
**A.** Its value is greater than 5.

**Q.** And the “E (ZEAMX)” value (Zea mays (corn) [2]; dosage 250 g/ha)?
**A.** The value was greater than 5.
